# Reference: patent publication US5686454A, “Camphorcarbonyl” (Merck & Co., Inc., priority 1996, dated 1997)
# Target: T1, uterine OT receptors (Rattus norvegicus, UniProt P70536)
# T1 construct: crude membrane preparation of uteri; from tissue; host or cells: uterus of DES-treated rats, crude membranes
# T1 sequence (P70536 1-388): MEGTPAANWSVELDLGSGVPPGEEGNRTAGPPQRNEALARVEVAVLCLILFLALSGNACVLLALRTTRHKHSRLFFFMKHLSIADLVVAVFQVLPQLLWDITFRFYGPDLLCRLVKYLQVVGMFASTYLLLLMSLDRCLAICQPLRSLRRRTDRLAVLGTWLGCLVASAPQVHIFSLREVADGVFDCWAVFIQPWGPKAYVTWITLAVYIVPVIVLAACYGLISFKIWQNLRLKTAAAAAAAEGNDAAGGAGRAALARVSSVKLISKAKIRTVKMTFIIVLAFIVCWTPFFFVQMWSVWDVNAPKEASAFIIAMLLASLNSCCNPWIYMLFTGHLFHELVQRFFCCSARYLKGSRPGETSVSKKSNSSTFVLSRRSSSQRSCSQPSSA
# Assay: Radioligand binding: competition of [^3 H]oxytocin binding to rat uterine membranes
# Conditions: 1 nM [^3 H]OT, rat uterus membranes, 60 minutes, 22° C., pH 7.4; read-out: IC50
# Excerpt: RADIOGLIGAND BINDING ASSAYS
# The high affinity binding of [^3 H]
row,IC50 [nM],SMILES
1,26,Cc1ccccc1N1CCN(S(=O)(=O)CC23CCC(CC2NC(=O)Cc2c[nH]cn2)C3(C)C)CC1 (stereo not drawn) [Example 79]
2,28,"CCOC(=O)CN1CCC[C@H]1C(=O)NCC(C)C1(O)CC2CCC1(CS(=O)(=O)N1CCN(c3ccccc3C)CC1)C2(C)C (stereo partly drawn) [Example 88, 1-((7,7-Dimethyl-2-exo-hydroxy-2-endo-2-(1-(1-N -(ethoxycarboxymethyl)-prolyl)amino)propyl-bicyclo-(2.2.1)heptan-1-yl)methanesulfonyl)-4-(2-methylphenyl)piperazine]"
3,10,"Cc1ccccc1N1CCN(S(=O)(=O)C[C@]23CC[C@H](C[C@]2(O)C(C)CNC(=O)[C@@H]2CCCN2CCCC(=O)O)C3(C)C)CC1 (stereo partly drawn) [Example 42, 1-((7,7-Dimethyl-2-exo-hydroxy-2-endo-2-(1-(1-N-(3-carboxypropyl)prolyl)amino)propyl-bicyclo(2.2.1)heptan-1-yl)methanesulfonyl)-4-(2-methylphenyl) piperazine]"
4,800,"Cc1ccccc1N1CCN(C(=O)C2C3CCC(C)(C2O)C3(C)C)CC1 (stereo not drawn) [Example 2, 1-[(3-hydroxy-4,7,7-trimethylbicyclo[2.2.1]hept-2-yl)carbonyl]-4-(2-methylphenyl)-piperazine]"
5,15.3,"Cc1ccccc1N1CCN(C(=O)C2C3CCC(C)(C2NC(=O)C(N)CCS(C)(=O)=O)C3(C)C)CC1 (stereo not drawn) [Example 12, 1-(2-methylphenyl)-4-[(4,7,7-trimethyl-3-endo-(4-methylsulfonyl-2-amino)butanoylaminobicyclo[2.2.1]hept-2-endo-yl)carbonyl]-piperazine]"
6,260,"COC(=O)C1CC2CCC1(CS(=O)(=O)N1CCN(c3ccccc3C)CC1)C2(C)C (stereo not drawn) [Example 59, 1-((7,7-Dimethyl-2-endo-methoxycarbonyl-bicyclo-(2.2.1)heptan-1-yl)methanesulfonyl)-4-(2-methyl-phenyl)piperazine]"
7,1100,"Cc1ccccc1N1CCN(S(=O)(=O)C[C@]23CC[C@H](CC2=CCCl)C3(C)C)CC1 [Example 49, 1-((7,7-dimethyl-2-(2-chloro)ethylidinebicyclo-(2.2.1)heptan-1-yl)methanesulfonyl)-4-(2-methyl-phenyl)piperazine]"
8,3.6,"Cc1ccccc1N1CCN(C(=O)C2C3CCC(C)(C2NC(=O)C(N)C(C)O)C3(C)C)CC1 (stereo not drawn) [Example 20, 1-(2-methylphenyl)-4-[(4,7,7-trimethyl-3-(2-amino-3-hydroxy)butyrylaminobicyclo[2.2.1]hept-2-yl)carbonyl]-piperazine]"
9,6.3,"Cc1ccccc1N1CCN(S(=O)(=O)CC23CCC(CC2N(C)C(=O)OCc2ccccc2)C3(C)C)CC1 (stereo not drawn) [Example 76, 1-((7,7-Dimethyl-2-endo-methyl(benzyloxy-carbonyl)amino-bicyclo(2.2.1)-heptan-1-yl)methanesulfonyl)4-(2-methylphenyl)piperazine]"
10,82,"Cc1ccccc1N1CCN(C(=O)C2C(=NO)C3(C)CCC2C3(C)C)CC1 (stereo not drawn) [Example 6, 1-(2-methylphenyl)-4-[(4,7,7-trimethyl-3-hydroxyimino-bicyclo[2.2.1]-hept-2-endo-yl)carbonyl]-piperazine]"
11,7.7,"Cc1ccccc1N1CCN(S(=O)(=O)CC23CCC(CC2NC(=O)[C@H](CCS(C)(=O)=O)NC(=O)OC(C)(C)C)C3(C)C)CC1 (stereo partly drawn) [Example 71, 1-((7,7-Dimethyl-2-endo-(2S-(tert-butyloxycarbonyl-amino)-4-(methylsulfonyl)-butyramido)-bicyclo(2.2.1)-heptan-1-yl)methanesulfonyl)-4-(2-methylphenyl)-piperazine]"
12,460,"Cc1ccccc1N1CCN(S(=O)(=O)CC23CCC(CC2O)C3(C)C)C(C)C1 (stereo not drawn) [Example 68, 1-((7,7-Dimethyl-2-exo-hydroxy-bicyclo(2.2.1)heptan-1-yl)methanesulfonyl)-4-(2-methylphenyl)-2-methyl-piperazine]"
13,27,CCOC(=O)CCN1CCCC1C(=O)NC1C(C(=O)N2CCN(c3ccccc3C)CC2)C2CCC1(C)C2(C)C (stereo not drawn) [Example 16]
14,14,Cc1ccccc1N1CCN(S(=O)(=O)CC23CCC(CC2(O)C(C)CNC(=O)[C@@H]2CCCN2CC(=O)O)C3(C)C)CC1 (stereo partly drawn) [Example 89]
15,1000,"Cc1ccccc1N1CCN(S(=O)(=O)C[C@]23CC[C@H](CC2=O)C3(C)C)CC1 [Example 37, 1-((7,7-Dimethyl-2-oxo-bicyclo(2.2.1)heptan-1-yl)methanesulfonyl)-4-(2-methylphenyl)piperazine]"
16,9.2,"Cc1ccccc1N1CCN(S(=O)(=O)CC23CCC(CC2N(C)C(=O)[C@@H](N)CCS(C)(=O)=O)C3(C)C)CC1 (stereo partly drawn) [Example 77, 1-((7,7-dimethyl-2-endo-methyl(2S-amino-4-(methylsulfonyl)butanoyl)amino-bicyclo(2.2.1)heptan-1-yl)methanesulfonyl)-4-(2-methylphenyl)-piperazine]"
17,1.2,"Cc1ccccc1N1CCN(S(=O)(=O)CC23CCC(CC2NC(=O)[C@@H](N)CCS(C)(=O)=O)C3(C)C)CC1 (stereo partly drawn) [Example 72, 1-((7,7-Dimethyl-2-endo-(2S-amino-4-(methylsulfonyl)-butyramido)bicyclo(2.2.1)heptan-1-yl)methanesulfonyl)-4-(2-methylphenyl)piperazine]"
18,34,"Cc1ccccc1N1CCN(S(=O)(=O)C[C@]23CC[C@H](C[C@]2(O)C(C)CNC(=O)[C@@H]2CCCN2)C3(C)C)CC1 (stereo partly drawn) [Example 40, 1-((7,7-Dimethyl-2-exo-hydroxy-2-endo-2-(1-(1-prolyl)-amino)propylbicyclo(2.2.1)heptan-1-yl)methanesulfonyl)-4-(2-methylphenyl)piperazine]"

row,SMILES,IC50 [nM]
1,"Cc1ccccc1N1CCN(C(=O)C2C3CCC(C)(C2NC(=O)C(CCS(C)(=O)=O)NC(=O)OC(C)(C)C)C3(C)C)CC1 (stereo not drawn) [Example 11, 1-(2-methylphenyl)-4-[(4,7,7-trimethyl-3-endo-(4-methylsulfonyl-2-t-butoxycarbonylamino)butanoylaminobicyclo[2.2.1]hept-2-endo-yl)carbonyl]-piperazine]",1100
2,"Cc1ccccc1N1CCN(C(=O)C2C3CCC(C)(C2NC(=O)C(CCS(C)(=O)=O)NC(=O)OC(C)(C)C)C3(C)C)CC1 (stereo not drawn) [Example 9, 1-(2-methylphenyl)-4-[(4,7,7-trimethyl-3-exo-(4-methylsulfonyl-2-t-butoxycarbonylamino)butanoylaminobicyclo[2.2.1]hept-2-endo-yl)carbonyl]-piperazine]",6.5

# Same assay, conditions: IC50, 1 nM [^3 H]OT, rat uterus membranes, 60 minutes, 22° C., pH 7.4
row,SMILES,IC50 [nM]
1,"Cc1ccccc1N1CCN(S(=O)(=O)C[C@]23CC[C@H](C[C@]2(O)C(C)CNC(=O)C2CN4CCC2CC4)C3(C)C)CC1 (stereo partly drawn) [Example 44, 1-((7,7-Dimethyl-2-exo-hydroxy-2-endo-2-(1-(quinuclidin-3-yl-carbonyl)amino)propyl-bicyclo(2.2.1)heptan-1-yl)methanesulfonyl)-4-(2-methylphenyl)piperazine]",18

# Same assay, conditions: read-out: % inhibition at 100 nM
row,inhibition at 0.1 µM [%],SMILES
1,34,"Cc1ccccc1N1CCN(S(=O)(=O)CC23CCC(CC2C(=O)O)C3(C)C)CC1 (stereo not drawn) [Example 60, 1-((7,7-Dimethyl-2-endo-carboxy-bicyclo(2.2.1)heptan-1-yl)methanesulfonyl)-4-(2-methylphenyl)piperazine]"
2,66,Cc1ccccc1N1CCN(S(=O)(=O)CC23CCC(CC2(O)C(C)CNC(=O)C2CCCN(CCC(=O)O)C2)C3(C)C)CC1 (stereo not drawn) [Example 85]
3,66,"Cc1ccccc1N1CCN(S(=O)(=O)CC23CCC(CC2(O)C(C)CNC(=O)C2CCN(CCC(=O)O)CC2)C3(C)C)CC1 (stereo not drawn) [Example 92, 1-((7,7-Dimethyl-2-exo-hydroxy-2-endo-2-(1-(4-(1-carboxyethyl)piperidinylcarbonyl)amino)propyl-bicyclo-(2.2.1)heptan-1-yl)methanesulfonyl)-4-(2-methylphenyl)piperazine]"

# Same assay, conditions: read-out: % inhibition at 1000 nM
row,inhibition at 1 µM [%],SMILES
1,44,"Cc1ccccc1N1CCN(S(=O)(=O)C[C@]23CC[C@H](CC2=CCNCC(C)C)C3(C)C)CC1 [Example 50, 1-((7,7-dimethyl-2-(2-isobutylamino)ethylidine-bicyclo(2.2.1)heptan-1-yl)methanesulfonlyl)-4-(2-methylphenyl)piperazine]"
2,35,"Cc1ccccc1N1CCN(S(=O)(=O)CC23CCC(CC2NC(=O)OCc2ccccc2)C3(C)C)CC1 (stereo not drawn) [Example 75, 1-((7,7-Dimethyl-2-endo-benzyloxycarbonylamino-bicyclo(2.2.1)heptan-1-yl)methanesulfonyl)-4-(2-methyl-phenyl)-piperazine]"
3,27,Cc1ccccc1N1CCN(C(=O)C2(CC#N)C(=O)C3(C)CCC2C3(C)C)CC1 (stereo not drawn) [Example 5]
4,31,"Cc1ccccc1N1CCN(S(=O)(=O)CC23CCC(CC24CO4)C3(C)C)CC1 (single isomer, unassigned) [Example 54, 1-((7,7-Dimethyl-2-spiro-epoxy-bicyclo(2.2.1)heptan-1-yl)methanesulfonyl)-4-(2-methylphenyl)piperazine]"
5,78,"Cc1ccccc1N1CCN(S(=O)(=O)C[C@]23CC[C@H](C=C2C(=O)O)C3(C)C)CC1 [Example 57, 1-((7,7-Dimethyl-2-carboxy-bicyclo(2.2.1)hept-2-en-1-yl)methanesulfonyl)-4-(2-methylphenyl)piperazine]"

# Same assay, conditions: read-out: % inhibition at 10,000 nM
row,inhibition at 10 µM [%],SMILES
1,5,"Cc1ccccc1N1CCN(S(=O)(=O)CC23CCC(CC2=O)C3(C)C)CC1=O (stereo not drawn) [Example 66, 1-((7,7-Dimethyl-2-oxo-bicyclo(2.2.1)heptan-1-yl)methanesulfonyl)-4-(2-methylphenyl)-3-piperazinone]"
